Source: PubChem BioAssay AID256 (DTP/NCI, 2004)
Values joined by “and” are separate entries in the source; they are usually repeats but may differ in a detail not shown here. Identical values can stand only once. Inconclusive results and toxic doses are left out.

System: CD2F1 mice, L1210 leukemia ip, survival T/C
Test: NCI In Vivo Anticancer Drug Screen. Data for tumor model L1210 Leukemia (intraperitoneal) in CD2F1 (CDF1) mice
Settings: higher = longer survival
How it was run: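 Implant tumor; dose compound or vehicle; measure endpoint in both groups; report treated divided by control.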

[1] = endpoint: mean survival time, dose: 12.5 mg/kg/injection, schedule: Q01DX009 (ip), vehicle: saline with Tween-80
[2] = endpoint: mean survival time, dose: 25.0 mg/kg/injection, schedule: Q01DX009 (ip), vehicle: saline with Tween-80

`O=S(CCCl)CCCl` was tested, and the T/C (endpoint: mean survival time, dose: 0.5 mg/kg/injection, schedule: Q01DX009 (ip), vehicle: Klucel (hydroxypropylcellulose) (HPC)) was 93 % of control, the T/C (endpoint: mean survival time, dose: 0.5 mg/kg/injection, schedule: Q04DX003 (ip), vehicle: Klucel (hydroxypropylcellulose) (HPC)) was 98 % of control and the T/C (endpoint: mean survival time, dose: 1.0 mg/kg/injection, schedule: Q01DX009 (ip), vehicle: Klucel (hydroxypropylcellulose) (HPC)) was 101 % of control. The T/C (endpoint: mean survival time, dose: 1.0 mg/kg/injection, schedule: Q04DX003 (ip), vehicle: Klucel (hydroxypropylcellulose) (HPC)) was 100 % of control, the T/C (endpoint: mean survival time, dose: 1.56 mg/kg/injection, schedule: Q01DX009 (ip), vehicle: Klucel (hydroxypropylcellulose) (HPC)) was 109 % of control and the T/C (endpoint: mean survival time, dose: 2.0 mg/kg/injection, schedule: Q01DX009 (ip), vehicle: Klucel (hydroxypropylcellulose) (HPC)) was 96 % of control. For the same compound, the T/C (endpoint: mean survival time, dose: 2.0 mg/kg/injection, schedule: Q04DX003 (ip), vehicle: Klucel (hydroxypropylcellulose) (HPC)) was 98 % of control, the T/C (endpoint: mean survival time, dose: 3.12 mg/kg/injection, schedule: Q01DX009 (ip), vehicle: Klucel (hydroxypropylcellulose) (HPC)) was 100 % of control and the T/C (endpoint: mean survival time, dose: 4.0 mg/kg/injection, schedule: Q01DX009 (ip), vehicle: Klucel (hydroxypropylcellulose) (HPC)) was 106 % of control. For the same compound, the T/C (endpoint: mean survival time, dose: 4.0 mg/kg/injection, schedule: Q04DX003 (ip), vehicle: Klucel (hydroxypropylcellulose) (HPC)) was 102 % of control, the T/C (endpoint: mean survival time, dose: 6.25 mg/kg/injection, schedule: Q01DX009 (ip), vehicle: Klucel (hydroxypropylcellulose) (HPC)) was 104 % of control and the T/C (endpoint: mean survival time, dose: 8.0 mg/kg/injection, schedule: Q01DX009 (ip), vehicle: Klucel (hydroxypropylcellulose) (HPC)) was 100 % of control. The T/C (endpoint: mean survival time, dose: 8.0 mg/kg/injection, schedule: Q04DX003 (ip), vehicle: Klucel (hydroxypropylcellulose) (HPC)) was 98 % of control, the T/C (endpoint: mean survival time, dose: 12.5 mg/kg/injection, schedule: Q01DX009 (ip), vehicle: Klucel (hydroxypropylcellulose) (HPC)) was 102 % of control and the T/C (endpoint: mean survival time, dose: 16.0 mg/kg/injection, schedule: Q01DX009 (ip), vehicle: Klucel (hydroxypropylcellulose) (HPC)) was 100 % of control. The T/C (endpoint: mean survival time, dose: 16.0 mg/kg/injection, schedule: Q04DX003 (ip), vehicle: Klucel (hydroxypropylcellulose) (HPC)) was 100 % of control, the T/C (endpoint: mean survival time, dose: 25.0 mg/kg/injection, schedule: Q01DX009 (ip), vehicle: Klucel (hydroxypropylcellulose) (HPC)) was 103 % of control and the T/C (endpoint: mean survival time, dose: 32.0 mg/kg/injection, schedule: Q04DX003 (ip), vehicle: Klucel (hydroxypropylcellulose) (HPC)) was 106 % of control.

With `Cc1c(Cl)c(C)c(Cl)c(O)c1Cl` (tested in a mixture with another compound) the T/C (endpoint: mean survival time, dose: 50.0 mg/kg/injection, schedule: Q01DX005 (ip), vehicle: saline with Tween-80) was 97 % of control and the T/C (endpoint: mean survival time, dose: 100.0 mg/kg/injection, schedule: Q01DX005 (ip), vehicle: saline with Tween-80) was 91 % of control.

In the case of `COc1ccccc1C1N(C)CCCN1C`, the T/C (endpoint: mean survival time, dose: 6.25 mg/kg/injection, schedule: Q01DX009 (ip), vehicle: saline with Tween-80) is reported as 100 % of control, the T/C [1] is reported as 102 % of control and the T/C [2] is reported as 102 % of control.

`CCOC(=O)CCCSc1nn(C2OC(CO)C(O)C2O)c(=O)[nH]c1=O` (stereo not given) was tested, and the T/C (endpoint: mean survival time, dose: 12.5 mg/kg/injection, schedule: Q01DX005 (ip), vehicle: water) was 101 % of control, the T/C (endpoint: mean survival time, dose: 25.0 mg/kg/injection, schedule: Q01DX005 (ip), vehicle: water) was 101 % of control and the T/C (endpoint: mean survival time, dose: 50.0 mg/kg/injection, schedule: Q01DX005 (ip), vehicle: water) was 101 % of control. The T/C (endpoint: mean survival time, dose: 100.0 mg/kg/injection, schedule: Q01DX005 (ip), vehicle: water) was 98 % of control and the T/C (endpoint: mean survival time, dose: 200.0 mg/kg/injection, schedule: Q01DX005 (ip), vehicle: water) was 104 % of control.

`CCC1(c2ccccc2)C(=O)N(Cl)C(=O)N(Cl)C1=O` was tested, and the T/C (endpoint: mean survival time, dose: 25.0 mg/kg/injection, schedule: Q01DX001 (ip), vehicle: saline with Tween-80) was 101 % of control, the T/C (endpoint: mean survival time, dose: 50.0 mg/kg/injection, schedule: Q01DX001 (ip), vehicle: saline with Tween-80) was 95 % of control and the T/C (endpoint: mean survival time, dose: 100.0 mg/kg/injection, schedule: Q01DX001 (ip), vehicle: saline with Tween-80) was 95 % of control and 100 % of control.

`CN(C)CCC(=O)c1cccc(O)c1` was tested, and the T/C (endpoint: mean survival time, dose: 100.0 mg/kg/injection, schedule: Q04DX002 (ip), vehicle: saline with Tween-80) was 104 % of control and the T/C (endpoint: mean survival time, dose: 200.0 mg/kg/injection, schedule: Q04DX002 (ip), vehicle: saline with Tween-80) was 101 % of control.

`CC12CCC(C(=O)C1=O)C2(C)C` (stereo not given) was tested, and the T/C (endpoint: mean survival time, dose: 100.0 mg/kg/injection, schedule: Q04DX003 (ip), vehicle: saline with Tween-80) was 102 % of control, the T/C (endpoint: mean survival time, dose: 200.0 mg/kg/injection, schedule: Q04DX003 (ip), vehicle: saline with Tween-80) was 94 % of control and the T/C (endpoint: mean survival time, dose: 400.0 mg/kg/injection, schedule: Q04DX003 (ip), vehicle: saline with Tween-80) was 102 % of control.

For `CCN(CC)c1ccc(-c2nc3ccccc3s2)cc1`, the T/C (endpoint: mean survival time, dose: 50.0 mg/kg/injection, schedule: Q01DX009 (ip), vehicle: Klucel (hydroxypropylcellulose) (HPC)) was 106 % of control, the T/C (endpoint: mean survival time, dose: 100.0 mg/kg/injection, schedule: Q01DX009 (ip), vehicle: Klucel (hydroxypropylcellulose) (HPC)) was 98 % of control and the T/C (endpoint: mean survival time, dose: 200.0 mg/kg/injection, schedule: Q01DX009 (ip), vehicle: Klucel (hydroxypropylcellulose) (HPC)) was 102 % of control.

`COc1cc(C2CNCc3cc(OC)c(OC)cc32)ccc1O` (stereo not given) was tested, and the T/C (endpoint: mean survival time, dose: 75.0 mg/kg/injection, schedule: Q01DX001 (ip), vehicle: saline) was 96 % of control, the T/C (endpoint: mean survival time, dose: 150.0 mg/kg/injection, schedule: Q01DX001 (ip), vehicle: saline) was 104 % of control and the T/C (endpoint: mean survival time, dose: 300.0 mg/kg/injection, schedule: Q01DX001 (ip), vehicle: saline) was 100 % of control.

In the case of `O=c1ccn2c(n1)OC1CC2OC1COC(c1ccccc1)(c1ccccc1)c1ccccc1` (stereo not given), the T/C (endpoint: median survival time, dose: 12.5 mg/kg/injection, schedule: Q01DX005 (ip), vehicle: saline with Tween-80) is reported as 102 % of control, the T/C (endpoint: median survival time, dose: 25.0 mg/kg/injection, schedule: Q01DX005 (ip), vehicle: saline with Tween-80) is reported as 96 % of control and the T/C (endpoint: median survival time, dose: 50.0 mg/kg/injection, schedule: Q01DX005 (ip), vehicle: saline with Tween-80) is reported as 95 % of control. The T/C (endpoint: median survival time, dose: 100.0 mg/kg/injection, schedule: Q01DX005 (ip), vehicle: saline with Tween-80) was 95 % of control and the T/C (endpoint: median survival time, dose: 200.0 mg/kg/injection, schedule: Q01DX005 (ip), vehicle: saline with Tween-80) was 98 % of control.

With `COc1ccc2[nH]cc(CCN(C)C)c2c1` the T/C [1] was 94 % of control, the T/C (endpoint: mean survival time, dose: 12.5 mg/kg/injection, schedule: Q04DX003 (ip), vehicle: saline with Tween-80) was 100 % of control and the T/C [2] was 91 % of control. For the same compound, the T/C (endpoint: mean survival time, dose: 25.0 mg/kg/injection, schedule: Q04DX003 (ip), vehicle: saline with Tween-80) was 95 % of control, the T/C (endpoint: mean survival time, dose: 50.0 mg/kg/injection, schedule: Q01DX009 (ip), vehicle: saline with Tween-80) was 92 % of control and the T/C (endpoint: mean survival time, dose: 50.0 mg/kg/injection, schedule: Q04DX003 (ip), vehicle: saline with Tween-80) was 96 % of control.

For `COc1c(O)cc2c(c1OC)-c1ccc(SC)c(=O)cc1C(NC(C)=O)CC2` (stereo not given), the T/C (endpoint: median survival time, dose: 0.06 mg/kg/injection, schedule: Q01DX009 (ip), vehicle: Klucel (hydroxypropylcellulose) (HPC)) was 110 % of control, the T/C (endpoint: median survival time, dose: 0.12 mg/kg/injection, schedule: Q01DX009 (ip), vehicle: Klucel (hydroxypropylcellulose) (HPC)) was 110 % of control and the T/C (endpoint: median survival time, dose: 0.25 mg/kg/injection, schedule: Q01DX009 (ip), vehicle: Klucel (hydroxypropylcellulose) (HPC)) was 110 % of control. For the same compound, the T/C (endpoint: median survival time, dose: 0.31 mg/kg/injection, schedule: Q01DX009 (ip), vehicle: DMSO) was 113 % of control, the T/C (endpoint: median survival time, dose: 0.31 mg/kg/injection, schedule: Q01DX009 (ip), vehicle: Klucel (hydroxypropylcellulose) (HPC)) was 118 % of control and the T/C (endpoint: median survival time, dose: 0.5 mg/kg/injection, schedule: Q01DX009 (ip), vehicle: Klucel (hydroxypropylcellulose) (HPC)) was 121 % of control. The T/C (endpoint: median survival time, dose: 0.63 mg/kg/injection, schedule: Q01DX009 (ip), vehicle: DMSO) was 124 % of control, the T/C (endpoint: median survival time, dose: 1.0 mg/kg/injection, schedule: Q01DX009 (ip), vehicle: Klucel (hydroxypropylcellulose) (HPC)) was 105 % of control and the T/C (endpoint: median survival time, dose: 2.5 mg/kg/injection, schedule: Q01DX009 (oral), vehicle: DMSO) was 108 % of control. For the same compound, the T/C (endpoint: median survival time, dose: 5.0 mg/kg/injection, schedule: Q01DX005 (ip), vehicle: Klucel (hydroxypropylcellulose) (HPC)) was 164 % of control, the T/C (endpoint: median survival time, dose: 5.0 mg/kg/injection, schedule: Q01DX009 (ip), vehicle: DMSO) was 172 % of control and the T/C (endpoint: median survival time, dose: 5.0 mg/kg/injection, schedule: Q01DX009 (oral), vehicle: DMSO) was 107 % of control. The T/C (endpoint: median survival time, dose: 10.0 mg/kg/injection, schedule: Q01DX009 (ip), vehicle: DMSO) was 165 % of control, the T/C (endpoint: median survival time, dose: 10.0 mg/kg/injection, schedule: Q01DX009 (oral), vehicle: DMSO) was 116 % of control and the T/C (endpoint: median survival time, dose: 20.0 mg/kg/injection, schedule: Q01DX005 (ip), vehicle: Klucel (hydroxypropylcellulose) (HPC)) was 158 % of control. For the same compound, the T/C (endpoint: median survival time, dose: 20.0 mg/kg/injection, schedule: Q01DX009 (oral), vehicle: DMSO) was 109 % of control and the T/C (endpoint: median survival time, dose: 40.0 mg/kg/injection, schedule: Q01DX009 (oral), vehicle: DMSO) was 107 % of control.

For `CN(Cc1cnc2nc(N)nc(N)c2c1)c1ccc(C(=O)NC(CCC(=O)O)C(=O)O)cc1` (stereo not given), the T/C (endpoint: median survival time, dose: 4.0 mg/kg/injection, schedule: Q01DX005 (ip), vehicle: other) was 158 % of control and the T/C (endpoint: median survival time, dose: 8.0 mg/kg/injection, schedule: Q01DX005 (ip), vehicle: other) was 158 % of control.

In the case of `Nc1ccc2ccccc2c1S(=O)(=O)O`, the T/C (endpoint: mean survival time, dose: 100.0 mg/kg/injection, schedule: Q01DX009 (ip), vehicle: saline with Tween-80) is reported as 102 % of control, the T/C (endpoint: mean survival time, dose: 200.0 mg/kg/injection, schedule: Q01DX009 (ip), vehicle: saline with Tween-80) is reported as 93 % of control and the T/C (endpoint: mean survival time, dose: 400.0 mg/kg/injection, schedule: Q01DX009 (ip), vehicle: saline with Tween-80) is reported as 90 % of control.
